“And” between values parts separate entries of the source, which are not always exact repeats. Identical values can stand only once.
Columns and labels:
[1] = Pilot pharmacokinetic study, single subcutaneous administration; details: male, Indian origin, rhesus monkey, in vivo; for concentration at 4 weeks: 4 weeks post dose; for concentration at 8 weeks: 8 weeks post dose; for concentration at 10 weeks: 10 weeks post dose
Protocol: All study protocols were reviewed and approved by the Covance Laboratories Institutional Animal Care and Use Committee (IACUC).
Rhesus plasma samples were stored frozen at −80 °C. For analysis, the samples were thawed, and a 50-µl aliquot of each sample was treated with 200 µl acetonitrile containing a generic internal small-molecule standard. After precipitation of the protein component, a 100-µl aliquot of the supernatant was transferred to a clean 96-well plate and was mixed with 200 µl water. A 20-μl aliquot of the above solution was then injected into a Q-Exactive high-resolution mass spectrometer (Thermo Scientific) with electrospray ionization in positive mode. Quantification was performed with a Thermo Scientific Xcalibur 4.0.27.19 using accurate masses (<5 parts per million mass error; [M + H]^+ of 958.1853 for GC-CA1 and 758.3270 for the internal standard, respectively)[22],[23]. […] Pharmacokinetic parameters, including the area under the plasma concentration–time curve from time 0 to the last quantifiable time point (AUClast), the area under the plasma concentration–time curve from time 0 to infinity (AUCinf), the maximum concentration (Cmax), the time to reach the observed peak plasma concentration (tmax) and the terminal half-life (t1/2), were determined by non-compartmental analysis using Phoenix WinNonlin 6.4 build 8.1.0.3530 software (Pharsight).

CA monomer = details: ref Yant et al, Nat.Med, 2019;[4]; read-out: Binding Affinity (KD), CA monomer; cited from earlier work
HIV capsid = details: ref Yant et al, Nat.Med, 2019;[4]; cited from earlier work
[2] = ref Yant et al, Nat.Med, 2019;[4], cited from earlier work
HIV-1 IIIb strain = experiment: High-density antiviral dose–response curves (Hill slope) against HIV-1 IIIb in MT-4 cells; type: cell-based
CA pentamer = details: ref Yant et al, Nat.Med, 2019;[4]; read-out: Binding Affinity (KD), CA pentamer; cited from earlier work
[3] = 100 mg/kg, Plasma GS-CA1 level, 100 mg/kg s.c., individual animals, unit inferred
[4] = 300 mg/kg, Plasma GS-CA1 level, 300 mg/kg s.c., individual animals, unit inferred

CC(C)(C#Cc1ccc(-c2ccc(Cl)c3c(NS(=O)(=O)C4CC4)nn(CC(F)F)c23)c([C@H](Cc2cc(F)cc(F)c2)NC(=O)Cn2nc(C(F)F)c3c2C(F)(F)[C@@H]2C[C@H]32)n1)S(C)(=O)=O [GS-CA1]
concentration at 2 weeks ([1]; 100 mg/kg, Plasma GS-CA1 level, 100 mg/kg s.c., 2 weeks post dose, individual animals, unit inferred): 163 nM | concentration at 3 weeks ([1]; 100 mg/kg, Plasma GS-CA1 level, 100 mg/kg s.c., 3 weeks post dose, individual animals, unit inferred): 114 nM | concentration at 4 weeks [1, 3]: 138 nM | concentration at 5 weeks ([1]; 100 mg/kg, Plasma GS-CA1 level, 100 mg/kg s.c., 5 weeks post dose, individual animals, unit inferred): 93.4 nM | concentration at 6 weeks ([1]; 100 mg/kg, Plasma GS-CA1 level, 100 mg/kg s.c., 6 weeks post dose, individual animals, unit inferred): 84.9 nM | concentration at 8 weeks [1, 3]: 36.4 nM | concentration at 10 weeks [1, 3]: 40.7 nM | concentration at 12 weeks ([1]; 100 mg/kg, Plasma GS-CA1 level, 100 mg/kg s.c., 12 weeks post dose, individual animals, unit inferred): 18 nM | concentration at 0.006 weeks ([1]; 300 mg/kg, Plasma GS-CA1 level, 300 mg/kg s.c., 0.006 weeks post dose, individual animals, unit not given (Fig. 1b in nM)): 68.8 nM | concentration at 0.43 weeks ([1]; 300 mg/kg, Plasma GS-CA1 level, 300 mg/kg s.c., 0.43 weeks post dose, individual animals, unit inferred): 2000 nM | concentration at 0.57 weeks ([1]; 300 mg/kg, Plasma GS-CA1 level, 300 mg/kg s.c., 0.57 weeks post dose, individual animals, unit inferred): 1920 nM | concentration at 1 week ([1]; 300 mg/kg, Plasma GS-CA1 level, 300 mg/kg s.c., 1 week post dose, individual animals, unit inferred): 1310 nM | concentration at 4 weeks [1, 4]: 338 nM | concentration at 8 weeks [1, 4]: 198 nM | concentration at 10 weeks [1, 4]: 109 nM | concentration at 14 weeks ([1]; 300 mg/kg, Plasma GS-CA1 level, 300 mg/kg s.c., 14 weeks post dose, individual animals, unit inferred): 43.8 nM | concentration at 7 day ([1]; plasma drug level, 100 and 300 mg/kg single s.c., by day 7): 400 to 1100 nM | AUC(0-inf) ([1]; sc, 100 mg/kg): 333 µM·h | F (based on AUCinf) ([1]; sc, 100 mg/kg): 92% | Tmax ([1]; sc, 100 mg/kg): 1.5 days | half-life ([1]; sc, 100 mg/kg): 25 days | AUC(0-t) ([1]; sc, 100 mg/kg, AUC0-24h): 19.3 µM·h | AUC(0-t) ([1]; sc, 100 mg/kg, AUC0-168h): 147 µM·h | AUC(0-t) ([1]; sc, 100 mg/kg, AUC0-336h): 198 µM·h | AUC(0-t) ([1]; sc, 100 mg/kg, AUC0-1008h): 279 µM·h | AUC(0-t) ([1]; sc, 100 mg/kg, AUC0-1344h): 298 µM·h | AUC(0-t) ([1]; sc, 100 mg/kg, AUC0-1680h): 310 µM·h | AUC(0-inf) ([1]; sc, 300 mg/kg): 1120 ± 126 µM·h | Cmax ([1]; sc, 300 mg/kg): 2710 ± 720 nM | F (based on AUCinf) ([1]; sc, 300 mg/kg): 104 ± 12% | Tmax ([1]; sc, 300 mg/kg): 2 ± 1 days | half-life ([1]; sc, 300 mg/kg): 23.2 days | AUC(0-t) ([1]; sc, 300 mg/kg, AUC0-24h): 25.2 ± 10.2 µM·h | AUC(0-t) ([1]; sc, 300 mg/kg, AUC0-336h): 434 ± 114 µM·h | AUC(0-t) ([1]; sc, 300 mg/kg, AUC0-1008h): 819 ± 77 µM·h | AUC(0-t) ([1]; sc, 300 mg/kg, AUC0-1344h): 936 ± 91 µM·h | AUC(0-t) ([1]; sc, 300 mg/kg, AUC0-1680h): 1010 ± 109 µM·h | Kd (CA monomer): 3.9 nM | Inhibits nuclear import (early-stage) (HIV capsid): Yes | Inhibits proper capsid assembly (late-stage) (HIV capsid): Yes | Inhibits virus production (late-stage) (HIV capsid): Yes | Kinetic solubility at pH 2.0 ([2]; pH 2.0): <1, <1 μM | Kinetic solubility at pH 7.4 ([2]; pH 7.4): <1, <1 μM | Hill slope (n) (HIV-1 IIIb strain): 3.03 ± 0.69 and 3.0 ± 0.7 | Kd (CA pentamer): 0.27 nM

Reference: paper PMC8753592, “Long-acting capsid inhibitor protects macaques from repeat SHIV challenges” (Nature, 2021)
